Data from patent US20120115896A1, “ISOGENIC HUMAN CELL LINES COMPRISING MUTATED CANCER ALLELES AND PROCESS USING THE CELL LINES” (priority 2008, published 2012).
Values joined by “and” are separate entries in the source; they are usually repeats but may differ in a detail not shown here. Equal values may be shown once. Read-outs that look alike come from different tables or passages of the source.

What was measured:
[1] = test system: hTERT-HME1 cells carrying KRAS (G13D) KI; assay: Drug assay: cell viability by ATP content (96 h), KI versus parental cells; ΔKI pharmarray analysis
[2] = test system: hTERT-HME1 cells carrying BRAF (V600E) KI; assay: as above
[3] = test system: hTERT-HME1 DKI cells carrying PIK3CA (H1047R) and EGFR (delE746-A750); assay: Drug assay: cell viability by ATP content (96 h), DKI versus parental cells; ΔKI pharmarray analysis
[4] = test system: hTERT-HME1 cells carrying EGFR (delE746-A750) KI; assay: Drug assay: cell viability by ATP content (CellTiter-Glo, 96 h), KI versus parental cells; ΔKI pharmarray analysis
[5] = test system: hTERT-HME1 cells carrying PIK3CA (E545K and H1047R) KI; assay: Drug assay: cell viability by ATP content (96 h) and Hoechst/propidium iodide staining, KI versus parental cells; ΔKI pharmarray analysis
[6] = test system: hTERT-HME1 DKI cells carrying PIK3CA (H1047R) and EGFR (delE746-A750)
[7] = test system: hTERT-HME1 cells carrying PIK3CA (E545K and H1047R) KI; conditions: Log(M) −5.10

## COc1ccc(-c2cc(=O)c3c(O)c(OC)c(O)cc3o2)cc1OC [Eupatiline]
[1]
  ΔKI KRAS: 0
[1]; Log(M) −3.97
  ΔKI KRAS: 0
[2]
  ΔKI BRAF: −0.1
[2]; Log(M) −3.97
  ΔKI BRAF: 2.9
[3]
  ΔKI PIK3CA + EGFR: 0
[3]; Log(M) −3.97
  ΔKI PIK3CA + EGFR: 0
[4]
  ΔKI EGFR: 0
[4]; Log(M) −3.97
  ΔKI EGFR: 0
[5]
  ΔKI PIK3CA: −1.66
[5]; Log(M) −3.97
  ΔKI PIK3CA: 0

## C[C@]12CC[C@@H]3c4ccc(O)cc4C[C@@H](CCCCCCCCC[S+]([O-])CCCC(F)(F)C(F)(F)F)[C@H]3[C@@H]1CC[C@@H]2O (stereo partly shown) [Fulvestrant]
[6]; Log(M) −4.05
  ΔKI PIK3CA + EGFR: 0
[6]; Log(M) −4.52
  ΔKI PIK3CA + EGFR: 0
[6]; Log(M) −5.00
  ΔKI PIK3CA + EGFR: 0

## COc1ccc2c(c1)c(CC(=O)N1CCOCC1)c(C)n2C(=O)c1ccc(Cl)cc1 [IMMA (BML-190)]
[1]
  ΔKI KRAS: 0
[1]; Log(M) −3.90
  ΔKI KRAS: 0
[2]
  ΔKI BRAF: 0
[2]; Log(M) −3.90
  ΔKI BRAF: 0
[3]
  ΔKI PIK3CA + EGFR: 0
[3]; Log(M) −3.90
  ΔKI PIK3CA + EGFR: 0
[4]
  ΔKI EGFR: 0
[4]; Log(M) −3.90
  ΔKI EGFR: 0
[5]
  ΔKI PIK3CA: 0
[5]; Log(M) −3.90
  ΔKI PIK3CA: 0.72

## CCCn1c(C)c(C(=O)c2cccc3ccccc23)c2ccccc21 [JWH-015]
[1]
  ΔKI KRAS: 0
[1]; Log(M) −3.55
  ΔKI KRAS: 0
[2]
  ΔKI BRAF: 0
[2]; Log(M) −3.55
  ΔKI BRAF: 0
[3]
  ΔKI PIK3CA + EGFR: 0
[3]; Log(M) −3.55
  ΔKI PIK3CA + EGFR: 0
[4]
  ΔKI EGFR: 0
[4]; Log(M) −3.55
  ΔKI EGFR: 0
[5]
  ΔKI PIK3CA: 0
[5]; Log(M) −3.55
  ΔKI PIK3CA: 0

## O=c1cc(N2CCOCC2)oc2c(-c3ccccc3)cccc12 [LY294002, LY 294002]
[7]
  ΔKI PIK3CA: 3.62

## CCCCC/C=C\C/C=C\C/C=C\C/C=C\CCC(C)C(=O)NCCF (stereo not shown) [Met-F-AEA]
[1]
  ΔKI KRAS: 0
[2]; listed as OGC-079
  ΔKI BRAF: 0.3
[3]
  ΔKI PIK3CA + EGFR: 0
[4]
  ΔKI EGFR: 0
[5]
  ΔKI PIK3CA: 0

## CCCCCCCCCCCCCCCCCCOCC(COC(=O)OC1C(O)C(O)C(O)C(CO)C1O)OC [OGC-023, 1L6-Hydroxymethyl-chiro-inositol-2-(R)-2-O-methyl-3-O-octadecyl-sn-glycerocarbonate]
[1]; Log(M) −4.14
  ΔKI KRAS: 0
[1]; Log(M) −4.62
  ΔKI KRAS: 0
[1]; Log(M) −5.10
  ΔKI KRAS: 0
[2]; Log(M) −4.14
  ΔKI BRAF: 0
[2]; Log(M) −4.62
  ΔKI BRAF: 0
[2]; Log(M) −5.10
  ΔKI BRAF: 0
[3]; Log(M) −4.14
  ΔKI PIK3CA + EGFR: 0
[3]; Log(M) −4.62
  ΔKI PIK3CA + EGFR: 3.32
[3]; Log(M) −5.10
  ΔKI PIK3CA + EGFR: 2.4
[4]; Log(M) −4.14
  ΔKI EGFR: 0
[4]; Log(M) −4.62
  ΔKI EGFR: 0
[4]; Log(M) −5.10
  ΔKI EGFR: 0
[5]; Log(M) −4.14
  ΔKI PIK3CA: 0
[5]; Log(M) −4.62
  ΔKI PIK3CA: 0
[5]; Log(M) −5.10
  ΔKI PIK3CA: 0

## O=C1CCC(N2C(=O)c3ccccc3C2=O)C(=O)N1 (stereo not shown) [OGC-065]
[1]
  ΔKI KRAS: 0
[1]; Log(M) −2.05
  ΔKI KRAS: 0
[1]; Log(M) −3.35
  ΔKI KRAS: 0
[2]
  ΔKI BRAF: 0
[2]; Log(M) −2.05
  ΔKI BRAF: 0
[2]; Log(M) −3.35
  ΔKI BRAF: 0
[3]; Log(M) −2.05
  ΔKI PIK3CA + EGFR: 0
[3]; Log(M) −3.35
  ΔKI PIK3CA + EGFR: −0.8
[4]
  ΔKI EGFR: 0
[4]; Log(M) −2.05
  ΔKI EGFR: 0
[4]; Log(M) −3.35
  ΔKI EGFR: −0.68
[5]
  ΔKI PIK3CA: 0
[5]; Log(M) −2.05
  ΔKI PIK3CA: 1.9
[5]; Log(M) −3.35
  ΔKI PIK3CA: 0

## COc1cccc(-c2cc(=O)c3ccccc3o2)c1N [PD 98059]
[1]; Log(M) −3.57
  ΔKI KRAS: 0
[1]; Log(M) −4.05
  ΔKI KRAS: 0
[1]; Log(M) −4.52
  ΔKI KRAS: 0
[2]; Log(M) −3.57
  ΔKI BRAF: 0
[2]; Log(M) −4.05
  ΔKI BRAF: 0
[2]; Log(M) −4.52
  ΔKI BRAF: 4
[3]; Log(M) −3.57
  ΔKI PIK3CA + EGFR: 0
[3]; Log(M) −4.05
  ΔKI PIK3CA + EGFR: 0
[3]; Log(M) −4.52
  ΔKI PIK3CA + EGFR: 0
[4]; Log(M) −3.57
  ΔKI EGFR: 0
[4]; Log(M) −4.05
  ΔKI EGFR: 3.5
[4]; Log(M) −4.52
  ΔKI EGFR: 0
[5]; Log(M) −3.57
  ΔKI PIK3CA: 0
[5]; Log(M) −4.05
  ΔKI PIK3CA: 0
[5]; Log(M) −4.52
  ΔKI PIK3CA: 0

## CC[C@H](C)C(=O)O[C@H]1C[C@H](O)C=C2C=C[C@H](C)[C@H](CC[C@@H](O)C[C@@H](O)CC(=O)[O-])[C@H]21.[Na+] [Pravastatin Na]
[1]; Log(M) −4.32
  ΔKI KRAS: 0
[1]; Log(M) −4.92
  ΔKI KRAS: 0
[1]; Log(M) −5.52
  ΔKI KRAS: 0
[2]; Log(M) −4.32
  ΔKI BRAF: 0
[2]; Log(M) −4.92
  ΔKI BRAF: 0
[2]; Log(M) −5.52
  ΔKI BRAF: 0
[3]; Log(M) −4.32
  ΔKI PIK3CA + EGFR: 0
[3]; Log(M) −4.92
  ΔKI PIK3CA + EGFR: 0
[3]; Log(M) −5.52
  ΔKI PIK3CA + EGFR: 0
[4]; Log(M) −4.32
  ΔKI EGFR: 0
[4]; Log(M) −4.92
  ΔKI EGFR: 0
[4]; Log(M) −5.52
  ΔKI EGFR: 0
[5]; Log(M) −4.32
  ΔKI PIK3CA: 0
[5]; Log(M) −5.52
  ΔKI PIK3CA: 0

## COC(=O)C1=CC[C@@]23CC[C@@H]([C@@](C)(/C=C/C=C(\C)C(=O)O)OC2=O)[C@@]3(OC(C)=O)CC1 [Pseudolaric Acid B]
[1]
  ΔKI KRAS: 0
[1]; Log(M) −6.48
  ΔKI KRAS: 0
[2]; Log(M) −6.48
  ΔKI BRAF: 0
[3]; Log(M) −6.48
  ΔKI PIK3CA + EGFR: 0.54
[4]
  ΔKI EGFR: 0
[4]; Log(M) −6.48
  ΔKI EGFR: 0
[5]
  ΔKI PIK3CA: 0
[5]; Log(M) −6.48
  ΔKI PIK3CA: 0

## CCCCCc1cc(O)c2c(c1)OC(C)(C)[C@@H]1CCC(C)=C[C@@H]21 [THC]
[1]
  ΔKI KRAS: 0
[2]
  ΔKI BRAF: 0.3
[2]; Log(M) −4.60
  ΔKI BRAF: 0.46
[2]; listed as OGC-089
  ΔKI BRAF: 0.88
[3]
  ΔKI PIK3CA + EGFR: 0
[4]
  ΔKI EGFR: 0
[5]
  ΔKI PIK3CA: 0

## O=C([O-])C[C@H](O)C[C@H](O)/C=C/c1c(C2CC2)nc2ccccc2c1-c1ccc(F)cc1.O=C([O-])C[C@H](O)C[C@H](O)/C=C/c1c(C2CC2)nc2ccccc2c1-c1ccc(F)cc1.[Ca+2] [itavastatin, Itavastatin Ca]
[1]
  ΔKI KRAS: 0
[2]
  ΔKI BRAF: 0
[2]; hTERT-HME1, FIG. 5H
  pharmarray: differential response of BRAF mutated cells versus WT: more resistant
[2]; listed as OGC-072
  ΔKI BRAF: −7.2
[3]
  ΔKI PIK3CA + EGFR: 0
[4]
  ΔKI EGFR: 0
[5]
  ΔKI PIK3CA: 0

## CO[C@H]1C[C@@H]2CC[C@@H](C)[C@@](O)(O2)C(=O)C(=O)N2CCCC[C@H]2C(=O)O[C@H]([C@H](C)C[C@@H]2CC[C@@H](O)[C@H](OC)C2)CC(=O)[C@H](C)/C=C(\C)[C@@H](O)[C@@H](OC)C(=O)[C@H](C)C[C@H](C)/C=C/C=C/C=C/1C [rapamycin, Rapamycin]
[6]; Log(M) −5.40
  ΔKI PIK3CA + EGFR: 1.22
[6]; Log(M) −6.40
  ΔKI PIK3CA + EGFR: 0
[6]; Log(M) −7.40
  ΔKI PIK3CA + EGFR: 1.6
[6]; Log(M) −8.40
  ΔKI PIK3CA + EGFR: 0
[6]; Log(M) −9.40
  ΔKI PIK3CA + EGFR: 0.66
[6]; Log(M) −10.40
  ΔKI PIK3CA + EGFR: 0

## Erybraedin C
[1]
  ΔKI KRAS: 0
[1]; Log(M) −4.70
  ΔKI KRAS: 0
[2]
  ΔKI BRAF: 0
[2]; Log(M) −4.70
  ΔKI BRAF: 0
[3]; Log(M) −4.70
  ΔKI PIK3CA + EGFR: 0.38
[4]
  ΔKI EGFR: 0
[4]; Log(M) −4.70
  ΔKI EGFR: 0
[5]
  ΔKI PIK3CA: 0
[5]; Log(M) −4.70
  ΔKI PIK3CA: 0

## Sodium Phenylbutyrate
[1]; Log(M) −1.97
  ΔKI KRAS: 0
[1]; Log(M) −2.44
  ΔKI KRAS: 0
[1]; Log(M) −2.92
  ΔKI KRAS: 0
[2]; Log(M) −1.97
  ΔKI BRAF: 0
[2]; Log(M) −2.44
  ΔKI BRAF: 0
[2]; Log(M) −2.92
  ΔKI BRAF: 0
[3]; Log(M) −1.97
  ΔKI PIK3CA + EGFR: 0
[3]; Log(M) −2.44
  ΔKI PIK3CA + EGFR: 0
[3]; Log(M) −2.92
  ΔKI PIK3CA + EGFR: 0
[4]; Log(M) −1.97
  ΔKI EGFR: 0
[4]; Log(M) −2.44
  ΔKI EGFR: 0
[4]; Log(M) −2.92
  ΔKI EGFR: 0
[5]; Log(M) −1.97
  ΔKI PIK3CA: 0
[5]; Log(M) −2.44
  ΔKI PIK3CA: 0
[5]; Log(M) −2.92
  ΔKI PIK3CA: 0

## Tamoxifene Citrate
[1]
  ΔKI KRAS: 0
[1]; Log(M) −4.75
  ΔKI KRAS: 0
[1]; Log(M) −5.35
  ΔKI KRAS: 0
[2]
  ΔKI BRAF: 0
[2]; Log(M) −4.75
  ΔKI BRAF: 0
[2]; Log(M) −5.35
  ΔKI BRAF: 0
[3]
  ΔKI PIK3CA + EGFR: 0.96 and 0.78
[3]; Log(M) −4.75
  ΔKI PIK3CA + EGFR: 0
[3]; Log(M) −5.35
  ΔKI PIK3CA + EGFR: −0.92
[4]
  ΔKI EGFR: 0
[4]; Log(M) −4.75
  ΔKI EGFR: 0
[4]; Log(M) −5.35
  ΔKI EGFR: −0.54
[5]; Log(M) −4.75
  ΔKI PIK3CA: 0
[5]; Log(M) −5.35
  ΔKI PIK3CA: 0.9
